{
  "source": "ChEMBL document CHEMBL6153018",
  "about": "“Macrocycles and macrocyclization in anticancer drug discovery: Important pieces of the puzzle” (Eur J Med Chem, 2024)",
  "key": {"in vitro [1]": {"experiment": "in vitro", "details": "human, Caco-2"}, "in vitro [2]": {"experiment": "in vitro", "details": "dog, MDCK"}, "physchem": {"experiment": "physchem", "details": "PBS buffer, pH 7.4"}},
  "note": "Square brackets hold non-standard residues; d marks the D form. Peptide text beside a SMILES is read from it. Lys(Me2) = CN(C)CCCC[C@H](N)C(=O)O; NMeT = CN[C@H](C(=O)O)[C@@H](C)O; NMeA = CN[C@@H](C)C(=O)O",
  "data": [
    {"smiles": "COC[C@@H]1NC(=O)[C@H](CC(N)=O)NC(=O)[C@H](CCCCN(C)C)NC(=O)[C@H](Cc2ccccc2)NC(=O)[C@H](Cc2ccc(OC)cc2)NC1=O", "note": "(cyclo([Lys(Me2)]NS(Me)Y(Me)F))", "values": [
      {"measurement": "Papp A→B at 1 h", "setting": "in vitro [1]", "result": 55.5, "unit": "nm/s"}
    ]},
    {"smiles": "CC(C)C[C@@H]1NC(=O)[C@H]([C@@H](C)O)N(C)C(=O)[C@H]2CCCN2C(=O)[C@H](CC(C)C)NC(=O)[C@H](C)N(C)C(=O)[C@H](CC(C)C)NC(=O)[C@H]([C@@H](C)O)N(C)C(=O)[C@H]2CCCN2C(=O)[C@H](CC(C)C)NC(=O)[C@H](C)N(C)C1=O", "note": "(cyclo(L[NMeA]L[dP][NMeT]L[NMeA]L[dP][NMeT]))", "values": [
      {"measurement": "Papp A→B at 2 h", "setting": "in vitro [2]", "result": 5.93, "unit": "nm/s"},
      {"measurement": "solubility", "setting": "physchem", "result": 880, "unit": "µM"}
    ]},
    {"smiles": "C[C@@H]1NC(=O)[C@H](CCCCN)NC(=O)[C@H](Cc2ccccc2)NC(=O)[C@H](Cc2ccc(O)cc2)NC(=O)[C@H](CO)NC1=O", "note": "(cyclo(ASYFK))", "values": [
      {"measurement": "Papp A→B at 1 h", "setting": "in vitro [1]", "result": 8.3, "unit": "nm/s"}
    ]}
  ]
}
